Key:
[1] = test system: L6; test: Cytotoxicity against rat L6 cells; type: functional, cell-based
[2] = molecular target: T1, Deoxyuridine 5'-triphosphate nucleotidohydrolase, mitochondrial (Homo sapiens, UniProt P33316); test: Inhibition of human recombinant dUTPase
T1 sequence (P33316 whole entry): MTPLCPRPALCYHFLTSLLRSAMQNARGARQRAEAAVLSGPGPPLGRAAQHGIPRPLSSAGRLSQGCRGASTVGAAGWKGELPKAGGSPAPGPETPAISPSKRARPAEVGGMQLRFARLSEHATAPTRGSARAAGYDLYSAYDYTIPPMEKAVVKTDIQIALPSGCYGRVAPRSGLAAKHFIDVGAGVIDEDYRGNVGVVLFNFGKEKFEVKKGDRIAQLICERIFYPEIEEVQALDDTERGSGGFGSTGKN

[3] = molecular target: T2, dUTP pyrophosphatase (Plasmodium falciparum 3D7, UniProt Q8II92); test: Inhibition of Plasmodium falciparum dUTPase
T2 sequence (Q8II92 whole entry): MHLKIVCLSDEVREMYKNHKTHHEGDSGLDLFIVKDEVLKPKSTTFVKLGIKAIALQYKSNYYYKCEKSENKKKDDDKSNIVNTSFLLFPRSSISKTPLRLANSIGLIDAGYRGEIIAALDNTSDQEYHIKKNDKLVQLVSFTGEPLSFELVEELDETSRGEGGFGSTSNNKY

[4] = molecular target: T3, dUTP pyrophosphatase (Plasmodium falciparum 3D7) (UniProt Q8II92); test: Selectivity index, human dUTPase/Plasmodium falciparum dUTPase
T3 sequence (whole entry): T2 sequence (Q8II92 whole entry)

[5] = test system: Plasmodium falciparum; test: Antiplasmodial activity against Plasmodium falciparum; type: functional, organism-based
[6] = Stability in simulated gastric fluid after 150 mins; type: ADME; settings: read-out: Stability
[7] = Intrinsic clearance in human liver microsome; type: ADME; settings: liver microsomes
[8] = Stability in simulated gastric fluid after 5 mins; type: ADME; settings: read-out: Stability
[9] = Stability in simulated gastric fluid after 0.2 mins; type: ADME; settings: read-out: Stability

Row | Ki [2] | Ki [3] | IC50 [5] | remaining at 2.5 h [6] | SMILES | IC50 [1] | Selectivity index [4] | microsomal CLint [7] | remaining at 5 min [8] | remaining at 12 s [9]
1 | > 1000 µM | 8.5 µM | 3.9 µM | – | CC(C)(C)[Si](OCCCCCCn1ccc(=O)[nH]c1=O)(c1ccccc1)c1ccccc1 | 18 µM | > 118 | – | – | –
2 | > 1000 µM | – | 3.8 µM | 94% | O=c1ccn(CCCCNC(c2ccccc2)(c2ccccc2)c2ccccc2)c(=O)[nH]1 | 33 µM | > 1110 | 64 µL/min/mg | – | –
3 | > 1000 µM | > 1000 µM | 235 µM | – | O=c1ccn(CCCCO)c(=O)[nH]1 | – | – | – | – | –
4 | > 1000 µM | 17 µM | 15 µM | – | O=C(NCCCCn1ccc(=O)[nH]c1=O)OCc1ccccc1 | – | > 60 | – | – | –
5 | – | – | > 37 µM | – | CC(C)(C)[Si](C)(C)O | > 680 µM | – | – | – | –
6 | 260 µM | 2.2 µM | 1.2 µM | – | O=c1ccn(CC(CO)CCOC(c2ccccc2)(c2ccccc2)c2ccccc2)c(=O)[nH]1 (configuration not stated) | 33 µM | – | – | – | –
7 | 5.2 µM | 1.2 µM | 3.5 µM | – | O=c1ccn(C/C=C\COC(c2ccccc2)(c2ccccc2)c2ccccc2)c(=O)[nH]1 | 39 µM | 4 | – | – | –
8 | > 1000 µM | 23 µM | 0.64 µM | – | [N-]=[N+]=NCC(CCOC(c1ccccc1)(c1ccccc1)c1ccccc1)Cn1ccc(=O)[nH]c1=O (configuration not stated) | 18 µM | – | – | – | –
9 | > 1000 µM | 0.6 µM | 3.7 µM | – | O=c1ccn(C/C=C/COC(c2ccccc2)(c2ccccc2)c2ccccc2)c(=O)[nH]1 | 34 µM | > 1670 | – | – | –
10 | > 1000 µM | > 1000 µM | 12 µM | – | OC(c1ccccc1)(c1ccccc1)c1ccccc1 [TRIPHENYLMETHANOL] | – | – | – | – | –
11 | > 1000 µM | 2.5 µM | 0.9 µM | – | CC(C)(C)OC(=O)NCC(CCn1ccc(=O)[nH]c1=O)COC(c1ccccc1)(c1ccccc1)c1ccccc1 (configuration not stated) | – | – | – | – | –
12 | 898 µM | 9.2 µM | > 18 µM | – | O=C(OCCCn1ccc(=O)[nH]c1=O)c1ccccc1 | – | > 97 | – | – | –
13 | 457 µM | – | 2 µM | – | O=c1ccn([C@H]2C[C@H](F)[C@@H](COC(c3ccccc3)(c3ccccc3)c3ccccc3)O2)c(=O)[nH]1 | – | – | – | – | –
14 | 496 µM | 224 µM | 38 µM | – | O=C(OCCCCn1ccc(=O)[nH]c1=O)c1ccccc1 | – | 2 | – | – | –
15 | > 1000 µM | > 1000 µM | 20 µM | – | O=c1ccn(CCCCCO)c(=O)[nH]1 | > 454 µM | – | – | – | –
16 | 636 µM | > 1000 µM | 19 µM | – | O=c1ccn(CCCCCCO)c(=O)[nH]1 | – | – | – | – | –
17 | 17 µM | 0.7 µM | 0.9 µM | – | O=c1ccn(COCCOC(c2ccccc2)(c2ccccc2)c2ccccc2)c(=O)[nH]1 | 39 µM | 25 | 96 µL/min/mg | – | –
18 | 74 µM | 1.3 µM | 2.8 µM | – | CC(=O)OCC(CCn1ccc(=O)[nH]c1=O)CNC(c1ccccc1)(c1ccccc1)c1ccccc1 (configuration not stated) | 37 µM | – | – | – | –
19 | > 1000 µM | 32 µM | 3.4 µM | – | O=C(OCCCCCCn1ccc(=O)[nH]c1=O)c1ccccc1 | – | > 31 | – | – | –
20 | 21 µM | 0.9 µM | 1.9 µM | – | O=c1ccn(CC(CCO)COC(c2ccccc2)(c2ccccc2)c2ccccc2)c(=O)[nH]1 (configuration not stated) | 57 µM | – | – | – | –
21 | 63 µM | 44 µM | 62 µM | – | CC(C)(C)[Si](C)(C)OCCOCn1ccc(=O)[nH]c1=O | > 299 µM | 1.4 | – | – | –
22 | > 1000 µM | 112 µM | 17 µM | – | CC(C)(C)OC(=O)NCCCCn1ccc(=O)[nH]c1=O | – | > 8 | – | – | –
23 | 5.7 µM | 0.24 µM | 3.2 µM | – | O=c1ccn(CCC(CO)CNC(c2ccccc2)(c2ccccc2)c2ccccc2)c(=O)[nH]1 (configuration not stated) | 55 µM | – | – | – | –
24 | 311 µM | 98 µM | 127 µM | – | O=C(OCCOCn1ccc(=O)[nH]c1=O)c1ccccc1 | 202 µM | 3 | – | – | –

More lines, now with the values behind:

Row | SMILES | Ki [2] | Ki [3] | IC50 [5] | remaining at 2.5 h [6] | IC50 [1] | Selectivity index [4] | microsomal CLint [7] | remaining at 5 min [8] | remaining at 12 s [9]
25 | O=c1ccn(CCCCOC(c2ccccc2)(c2ccccc2)c2ccccc2)c(=O)[nH]1 | > 1000 µM | 1.6 µM | 4.9 µM | – | 42 µM | > 617 | 68 µL/min/mg | 2% | –
26 | O=c1ccn(CCCOC(c2ccccc2)(c2ccccc2)c2ccccc2)c(=O)[nH]1 | 313 µM | 87 µM | 7.5 µM | – | 34 µM | 4 | – | – | –
27 | O=c1ccn(CCCNC(c2ccccc2)(c2ccccc2)c2ccccc2)c(=O)[nH]1 | 1.4 µM | 0.2 µM | 4.4 µM | – | 107 µM | 7 | – | – | –
28 | O=c1ccn(CCCCCNC(c2ccccc2)(c2ccccc2)c2ccccc2)c(=O)[nH]1 | > 1000 µM | – | 2.2 µM | – | 39 µM | > 233 | – | – | –
29 | O=c1ccn([C@H]2C[C@H](O)[C@@H](CNC(c3ccccc3)(c3ccccc3)c3ccccc3)O2)c(=O)[nH]1 | 46 µM | – | 4.5 µM | – | 44 µM | – | – | – | –
30 | O=c1ccn(CCCO[Si](c2ccccc2)(c2ccccc2)c2ccccc2)c(=O)[nH]1 | 25 µM | 1.6 µM | 0.58 µM | – | 70 µM | 16 | – | – | –
31 | O=c1ccn([C@H]2C[C@H](O)[C@@H](COC(c3ccccc3)(c3ccccc3)c3ccccc3)O2)c(=O)[nH]1 | 18 µM | – | 6 µM | – | 192 µM | 10 | – | – | –
32 | O=c1ccn(CCCCCCO[Si](c2ccccc2)(c2ccccc2)c2ccccc2)c(=O)[nH]1 | 383 µM | 1.7 µM | 0.46 µM | – | 50 µM | 227 | 35 µL/min/mg | – | < 2%
33 | O=c1ccn(CCCCCCOC(c2ccccc2)(c2ccccc2)c2ccccc2)c(=O)[nH]1 | 476 µM | 9.6 µM | 2.3 µM | – | 44 µM | 50 | – | – | –
34 | O=c1ccn(CCCCCOC(c2ccccc2)(c2ccccc2)c2ccccc2)c(=O)[nH]1 | > 1000 µM | 2 µM | 1.1 µM | – | 24 µM | > 500 | – | – | –
35 | O=c1ccn(CCCCCCNC(c2ccccc2)(c2ccccc2)c2ccccc2)c(=O)[nH]1 | > 1000 µM | 1.8 µM | 1.1 µM | – | 40 µM | > 543 | – | – | –
36 | CC(C)(C)[Si](C)(C)OCCCn1ccc(=O)[nH]c1=O | 73 µM | 73 µM | > 18 µM | – | 192 µM | 1 | – | – | –
37 | O[Si](c1ccccc1)(c1ccccc1)c1ccccc1 | > 1000 µM | > 1000 µM | 0.65 µM | – | 138 µM | – | – | – | –
38 | O=c1ccn(CCCCO[Si](c2ccccc2)(c2ccccc2)c2ccccc2)c(=O)[nH]1 | > 1000 µM | 2.2 µM | 0.36 µM | – | – | > 446 | 69 µL/min/mg | – | < 2%
39 | O=c1ccn(CCCCCO[Si](c2ccccc2)(c2ccccc2)c2ccccc2)c(=O)[nH]1 | > 1000 µM | 3.8 µM | 0.38 µM | – | 47 µM | > 265 | – | – | –
40 | O=c1ccn([C@H]2C[C@H](O)[C@@H](CO[Si](c3ccccc3)(c3ccccc3)c3ccccc3)O2)c(=O)[nH]1 | – | – | 1.1 µM | – | – | – | – | – | –
41 | O=c1ccn(CCCO)c(=O)[nH]1 | > 1000 µM | 368 µM | > 29 µM | – | – | > 2 | – | – | –

Reference: ChEMBL document CHEMBL1138899, “Acyclic nucleoside analogues as inhibitors of Plasmodium falciparum dUTPase” (J Med Chem, 2006)
